The assay has as its target T1, Elastase from human neutrophils (Homo sapiens, UniProt P08246).
T1 sequence (P08246 30-267): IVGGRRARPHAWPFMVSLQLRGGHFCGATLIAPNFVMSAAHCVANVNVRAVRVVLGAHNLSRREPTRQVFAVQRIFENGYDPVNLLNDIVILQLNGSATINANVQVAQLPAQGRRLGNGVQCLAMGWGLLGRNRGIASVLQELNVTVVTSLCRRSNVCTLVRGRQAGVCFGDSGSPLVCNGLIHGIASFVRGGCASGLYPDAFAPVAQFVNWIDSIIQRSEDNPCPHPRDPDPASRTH
Description: Enzymatic assay, elastase. The conditions noted are these: Elastase IC50.

Where a SMILES comes first, the peptide text is derived from it.

`CCCC[C@@H]1NC(=O)[C@@H]2CCCN2C(=O)[C@H]2CCCN2C(=O)[C@H](Cc2ccc(O)cc2)NC(=O)[C@H](CCCNC(=N)N)NC(=O)[C@H](CCC(N)=O)NC(=O)[C@@H]2CCCN2C(=O)[C@@H]2CCCN2C(=O)[C@H]([C@@H](C)CC)NC(=O)[C@H](CO)NC(=O)[C@H](C)NC(=O)[C@H]([C@@H](C)O)NC(=O)[C@H](CCC(N)=O)NC1=O` [Ex. 107] (HELM PEPTIDE1{[Nle].Q.T.A.S.I.P.P.Q.R.Y.[dP].P}$PEPTIDE1,PEPTIDE1,1:R1-13:R2$$$V2.0) displayed a half-maximal inhibitory concentration (IC50) of 51 nM.

`CCCCCCCC[C@@H]1NC(=O)[C@@H]2CCCN2C(=O)[C@H]2CCCN2C(=O)[C@H](CCC(N)=O)NC(=O)[C@@H]2CSSC[C@H](NC1=O)C(=O)N[C@@H]([C@@H](C)O)C(=O)N[C@@H](C)C(=O)N[C@@H](CO)C(=O)N[C@@H]([C@@H](C)CC)C(=O)N1CCC[C@H]1C(=O)N1CCC[C@H]1C(=O)N[C@@H](CCC(N)=O)C(=O)N2` [Ex. 149] (HELM PEPTIDE1{[CCCCCCCC[C@H](N[*:1])C(=O)[*:2]].C.T.A.S.I.P.P.Q.C.Q.[dP].P}$PEPTIDE1,PEPTIDE1,2:R3-10:R3|PEPTIDE1,PEPTIDE1,1:R1-13:R2$$$V2.0): the midpoint of inhibition, the IC50, lay at 11 nM.

In turn, `CCCCCCCC[C@@H]1NC(=O)[C@H](CO)NC(=O)[C@H](C)NC(=O)[C@H]([C@@H](C)O)NC(=O)[C@@H]2CSSC[C@H](NC(=O)[C@H](CCC(N)=O)NC(=O)[C@@H]3CCCN3C(=O)[C@@H]3CCCN3C1=O)C(=O)N[C@@H](Cc1ccccc1)C(=O)N1CCC[C@@H]1C(=O)N1CCC[C@H]1C(=O)N[C@@H](CCc1ccccc1)C(=O)N2` [Ex. 152] (HELM PEPTIDE1{[O=C([C@H](CCc1ccccc1)N[*:1])[*:2]].C.T.A.S.[CCCCCCCC[C@H](N[*:1])C(=O)[*:2]].P.P.Q.C.F.[dP].P}$PEPTIDE1,PEPTIDE1,2:R3-10:R3|PEPTIDE1,PEPTIDE1,1:R1-13:R2$$$V2.0) returned an IC50 of 9 nM.

As for `CCCCCCCC[C@@H]1NC(=O)[C@@H]2CCCN2C(=O)[C@H]2CCCN2C(=O)[C@H](CCC(N)=O)NC(=O)[C@@H]2CSSC[C@H](NC1=O)C(=O)N[C@@H]([C@@H](C)O)C(=O)N[C@@H](C)C(=O)N[C@@H](CO)C(=O)N[C@@H](CC1CCCCC1)C(=O)N1CCC[C@H]1C(=O)N1CCC[C@H]1C(=O)N[C@@H](CCC(N)=O)C(=O)N2` [Ex. 159] (HELM PEPTIDE1{[CCCCCCCC[C@H](N[*:1])C(=O)[*:2]].C.T.A.S.[Cha].P.P.Q.C.Q.[dP].P}$PEPTIDE1,PEPTIDE1,2:R3-10:R3|PEPTIDE1,PEPTIDE1,1:R1-13:R2$$$V2.0), the 50% inhibitory concentration (IC50) turned out to be 7 nM. This IC50 and that of the compound before are within 1.5-fold of each other.

For `CCCC[C@@H]1NC(=O)[C@@H]2CCCN2C(=O)[C@@H](C(C)C)NC(=O)[C@H](Cc2ccc(O)cc2)NC(=O)[C@@H]2CSSC[C@H](NC1=O)C(=O)N[C@@H]([C@@H](C)O)C(=O)N[C@@H](C)C(=O)N[C@@H](CO)C(=O)N[C@@H]([C@@H](C)CC)C(=O)N1CCC[C@H]1C(=O)N1CCC[C@H]1C(=O)N[C@@H](CCC(N)=O)C(=O)N2` [Ex. 119] (HELM PEPTIDE1{A.S.I.P.P.Q.C.Y.[dV].P.[Nle].C.T}$PEPTIDE1,PEPTIDE1,7:R3-12:R3|PEPTIDE1,PEPTIDE1,1:R1-13:R2$$$V2.0), the IC50 is 45 nM.

For the compound `CC[C@H](C)[C@@H]1NC(=O)[C@@H]2CCCN2C(=O)[C@H]2CCCN2C(=O)[C@H](Cc2ccc(O)cc2)NC(=O)[C@@H]2CSSC[C@H](NC1=O)C(=O)N[C@@H]([C@@H](C)O)C(=O)N[C@@H](C)C(=O)N[C@@H](CO)C(=O)N[C@@H](CC(C)C)C(=O)N1CCC[C@H]1C(=O)N1CCC[C@H]1C(=O)N[C@@H](CCC(N)=O)C(=O)N2` [Ex. 76] (HELM PEPTIDE1{I.C.T.A.S.L.P.P.Q.C.Y.[dP].P}$PEPTIDE1,PEPTIDE1,2:R3-10:R3|PEPTIDE1,PEPTIDE1,1:R1-13:R2$$$V2.0), the IC50 was 71 nM. This IC50 is about 1.6-fold higher than that of the compound before.

`CCCCCCCC[C@@H]1NC(=O)[C@H](CO)NC(=O)[C@H](C)NC(=O)[C@H]([C@@H](C)O)NC(=O)[C@@H]2CSSC[C@H](NC(=O)[C@H](CCC(N)=O)NC(=O)[C@@H]3CCCN3C(=O)[C@@H]3CCCN3C1=O)C(=O)N[C@@H](CCC(N)=O)C(=O)N1CCC[C@@H]1C(=O)N1CCC[C@H]1C(=O)N[C@@H](CCCC)C(=O)N2` [Ex. 129] (HELM PEPTIDE1{[Nle].C.T.A.S.[CCCCCCCC[C@H](N[*:1])C(=O)[*:2]].P.P.Q.C.Q.[dP].P}$PEPTIDE1,PEPTIDE1,2:R3-10:R3|PEPTIDE1,PEPTIDE1,1:R1-13:R2$$$V2.0) yielded an IC50 of 30 nM.

In turn, `CCCCCCCC[C@@H]1NC(=O)[C@@H]2CCCN2C(=O)[C@H]2CCCN2C(=O)[C@H](Cc2ccccc2)NC(=O)[C@@H]2CSSC[C@H](NC1=O)C(=O)N[C@@H]([C@@H](C)O)C(=O)N[C@@H](C)C(=O)N[C@@H](CO)C(=O)N[C@@H]([C@@H](C)CC)C(=O)N1CCC[C@H]1C(=O)N1CCC[C@H]1C(=O)N[C@@H](CCC(N)=O)C(=O)N2` [Ex. 145] (HELM PEPTIDE1{[CCCCCCCC[C@H](N[*:1])C(=O)[*:2]].C.T.A.S.I.P.P.Q.C.F.[dP].P}$PEPTIDE1,PEPTIDE1,2:R3-10:R3|PEPTIDE1,PEPTIDE1,1:R1-13:R2$$$V2.0) came in with a half-inhibitory concentration (IC50) of 14 nM.

Take `CCCC[C@@H]1NC(=O)[C@@H]2CCCN2C(=O)[C@@H](CO)NC(=O)[C@H](Cc2ccc(O)cc2)NC(=O)[C@@H]2CSSC[C@H](NC1=O)C(=O)N[C@@H]([C@@H](C)O)C(=O)N[C@@H](C)C(=O)N[C@@H](CO)C(=O)N[C@@H]([C@@H](C)CC)C(=O)N1CCC[C@H]1C(=O)N1CCC[C@H]1C(=O)N[C@@H](CCC(N)=O)C(=O)N2` [Ex. 118] (HELM PEPTIDE1{A.S.I.P.P.Q.C.Y.[dS].P.[Nle].C.T}$PEPTIDE1,PEPTIDE1,7:R3-12:R3|PEPTIDE1,PEPTIDE1,1:R1-13:R2$$$V2.0): the concentration for half-maximal inhibition (IC50) was found to be 43 nM.

For `CCCC[C@@H]1NC(=O)[C@H](CCC(N)=O)NC(=O)[C@H]2CCCN2C(=O)[C@H](CC2CCCCC2)NC(=O)[C@@H]2CSSC[C@H](NC1=O)C(=O)N[C@@H]([C@@H](C)O)C(=O)N[C@@H](C)C(=O)N[C@@H](CO)C(=O)N[C@@H](CC1CCCCC1)C(=O)N1CCC[C@H]1C(=O)N1CCC[C@H]1C(=O)N[C@@H](CCC(N)=O)C(=O)N2` [compound 172] (HELM PEPTIDE1{[Nle].C.T.A.S.[Cha].P.P.Q.C.[Cha].[dP].Q}$PEPTIDE1,PEPTIDE1,2:R3-10:R3|PEPTIDE1,PEPTIDE1,1:R1-13:R2$$$V2.0), the concentration for half-maximal inhibition (IC50) worked out at 13 nM. Against the preceding compound, the IC50 is about 3.3-fold lower.

As to `CC[C@H](C)[C@@H]1NC(=O)[C@H](CO)NC(=O)[C@H](C)NC(=O)[C@H]([C@@H](C)O)NC(=O)[C@H]([C@@H](C)O)NC(=O)[C@H](CCc2ccccc2)NC(=O)[C@@H]2CCCN2C(=O)[C@H]2CCCN2C(=O)[C@H](Cc2ccc(O)cc2)NC(=O)[C@H](CCC(N)=O)NC(=O)[C@H](CCC(N)=O)NC(=O)[C@@H]2CCCN2C(=O)[C@@H]2CCCN2C1=O` [Ex. 134] (HELM PEPTIDE1{[O=C([C@H](CCc1ccccc1)N[*:1])[*:2]].T.T.A.S.I.P.P.Q.Q.Y.[dP].P}$PEPTIDE1,PEPTIDE1,1:R1-13:R2$$$V2.0), the IC50 stood at 23 nM.

Consider `CCCC[C@@H]1NC(=O)[C@@H]2CCCN2C(=O)[C@H]2CCCN2C(=O)[C@H](Cc2ccc(O)cc2)NC(=O)[C@H](CCC(N)=O)NC(=O)[C@H](CCC(N)=O)NC(=O)[C@@H]2CCCN2C(=O)[C@@H]2CCCN2C(=O)[C@H](CC2CCCCC2)NC(=O)[C@H](CO)NC(=O)[C@H](C)NC(=O)[C@H]([C@@H](C)O)NC(=O)[C@H]([C@@H](C)O)NC1=O` [Ex. 139] (HELM PEPTIDE1{[Nle].T.T.A.S.[Cha].P.P.Q.Q.Y.[dP].P}$PEPTIDE1,PEPTIDE1,1:R1-13:R2$$$V2.0), for which the IC50 came out at 18 nM. This IC50 and that of the compound before are within 1.5-fold of each other.

On to `CCCC[C@@H]1NC(=O)[C@@H]2CCCN2C(=O)[C@H]2CCCN2C(=O)[C@H](CCCC)NC(=O)[C@@H]2CSSC[C@H](NC1=O)C(=O)N[C@@H]([C@@H](C)O)C(=O)N[C@@H](C)C(=O)N[C@@H](CO)C(=O)N[C@@H]([C@@H](C)CC)C(=O)N1CCC[C@H]1C(=O)N1CCC[C@H]1C(=O)N[C@@H](CCC(N)=O)C(=O)N2` [Ex. 94] (HELM PEPTIDE1{[Nle].C.T.A.S.I.P.P.Q.C.[Nle].[dP].P}$PEPTIDE1,PEPTIDE1,2:R3-10:R3|PEPTIDE1,PEPTIDE1,1:R1-13:R2$$$V2.0), for which half-maximal inhibition (IC50) was put at 50 nM.

`CCCC[C@@H]1NC(=O)[C@@H]2CCCN2C(=O)[C@H]2CCCN2C(=O)[C@H](Cc2ccc(O)cc2)NC(=O)[C@H](CCCNC(=N)N)NC(=O)[C@H](CCC(N)=O)NC(=O)[C@@H]2CCCN2C(=O)[C@@H]2CCCN2C(=O)[C@H]([C@@H](C)CC)NC(=O)[C@H](CO)NC(=O)[C@H](C)NC(=O)[C@H]([C@@H](C)O)NC(=O)[C@H](CCC(=O)O)NC1=O` [Ex. 105] (HELM PEPTIDE1{[Nle].E.T.A.S.I.P.P.Q.R.Y.[dP].P}$PEPTIDE1,PEPTIDE1,1:R1-13:R2$$$V2.0) showed a 50% inhibitory concentration (IC50) of 34 nM.

In the case of `CCCC[C@@H]1NC(=O)[C@@H]2CCCN2C(=O)[C@H]2CCCN2C(=O)[C@H](Cc2ccc(O)cc2)NC(=O)[C@H](CCC(N)=O)NC(=O)[C@H](CCC(N)=O)NC(=O)[C@@H]2CCCN2C(=O)[C@@H]2CCCN2C(=O)[C@H]([C@@H](C)CC)NC(=O)[C@H](CO)NC(=O)[C@H](C)NC(=O)[C@H]([C@@H](C)O)NC(=O)[C@H]([C@@H](C)O)NC1=O` [Ex. 110] (HELM PEPTIDE1{[Nle].T.T.A.S.I.P.P.Q.Q.Y.[dP].P}$PEPTIDE1,PEPTIDE1,1:R1-13:R2$$$V2.0), the IC50 worked out at 38 nM.

`CCCC[C@@H]1NC(=O)[C@H](CCC(N)=O)NC(=O)[C@@H](CCC(N)=O)NC(=O)[C@H](CC2CCCCC2)NC(=O)[C@@H]2CSSC[C@H](NC1=O)C(=O)N[C@@H]([C@@H](C)O)C(=O)N[C@@H](C)C(=O)N[C@@H](CO)C(=O)N[C@@H](CC1CCCCC1)C(=O)N1CCC[C@H]1C(=O)N1CCC[C@H]1C(=O)N[C@@H](CCC(N)=O)C(=O)N2` [Ex. 171] (HELM PEPTIDE1{[Nle].C.T.A.S.[Cha].P.P.Q.C.[Cha].[dQ].Q}$PEPTIDE1,PEPTIDE1,2:R3-10:R3|PEPTIDE1,PEPTIDE1,1:R1-13:R2$$$V2.0): the IC50 worked out at 13 nM.

The record behind these values is patent US8658604B2, “Template-fixed beta-hairpin peptidomimetics with protease inhibitory activity” (Polyphor Ltd, priority 2005, dated 2014).
